Patent US20090137572A1, “2-substituted-4-heteroaryl-pyrimidines useful for the treatment of proliferative disorders” (priority 2004, published 2009)

How the values were obtained:
[1] = target: protein kinases (panel of Table 4) (Homo sapiens, UniProt P12931); assay: Kinase selectivity profile, kinase inhibition IC50 (Table 4), ATP 100 μM; type: biochemical; conditions: kinase Src
Experimental: (§1) For the assays shown in Table 3, the kinases were assayed at the following ATP concentrations: SAPK4, PKBΔph, GSK3b, SAPK3, CK2, MKK1, PIM2, IKKB, ERK8, and PRK2 at 5 μM; JNK, PRAK, ROCK-II, SAPK2b, CDK2, CHK1, MSK1, CSK, P70S6K, PKA, CK1, MAPKAP-K2, SGK, PKCa, PDK1, NEK 7, and MAPKAP-K3 at 20 μM; SAPK2a, LCK, AMPK, MAPK2, DYRK1a, MAPKAP-K1a, NEK-6, NEK2a, PBK, CAMK-1, SRPK-1, JNK3, MNK2, RSK2, MNK1, PKBB, and SmMLCK at 50 μM. For the assays in Table 4 the ATP concentration was 100 μM throughout.

[2] = target: T1, protein kinases (panel of Table 4) (Homo sapiens, UniProt Q16539); assay: as above; type: biochemical; conditions: kinase SAPK2a
T1 construct: other: kinase SAPK2a; ATP 100 μM
T1 sequence (Q16539 whole entry): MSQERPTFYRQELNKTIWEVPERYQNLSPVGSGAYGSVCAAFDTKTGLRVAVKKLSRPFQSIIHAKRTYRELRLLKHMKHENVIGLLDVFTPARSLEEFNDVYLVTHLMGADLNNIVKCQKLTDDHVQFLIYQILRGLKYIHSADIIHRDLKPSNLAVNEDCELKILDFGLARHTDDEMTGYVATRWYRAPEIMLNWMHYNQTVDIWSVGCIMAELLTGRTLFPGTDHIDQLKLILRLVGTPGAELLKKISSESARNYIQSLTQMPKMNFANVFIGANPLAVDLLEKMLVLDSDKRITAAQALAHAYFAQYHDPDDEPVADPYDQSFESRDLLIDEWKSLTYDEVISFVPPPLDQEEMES
Experimental: as §1

[3] = target: NEK6 (Homo sapiens, UniProt Q9HC98); assay: Kinase selectivity profile, NEK6; type: biochemical; conditions: 5 μM test compound, compared to control; ATP 50 μM
Chain of NEK6 (Q9HC98 whole entry, species assumed): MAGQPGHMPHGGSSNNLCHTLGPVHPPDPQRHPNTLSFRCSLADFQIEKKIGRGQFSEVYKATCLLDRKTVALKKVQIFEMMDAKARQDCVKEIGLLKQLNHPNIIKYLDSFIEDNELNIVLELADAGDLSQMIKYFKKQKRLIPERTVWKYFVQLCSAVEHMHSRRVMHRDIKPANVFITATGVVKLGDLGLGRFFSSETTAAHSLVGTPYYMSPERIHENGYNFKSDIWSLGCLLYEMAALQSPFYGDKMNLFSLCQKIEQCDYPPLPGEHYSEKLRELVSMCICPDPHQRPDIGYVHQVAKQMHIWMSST
Experimental: (§2) The kinase selectivity profiles of selected example compounds were determined, essentially as described (Bain, J.; McLauchlan, H.; Elliott, M.; Cohen, P. Biochemical Journal, 2003, 371, 199.); the results are shown in Tables 3 & 4. For the assays shown in Table 3, the kinases were assayed at the following ATP concentrations: SAPK4, PKBΔph, GSK3b, SAPK3, CK2, MKK1, PIM2, IKKB, ERK8, and PRK2 at 5 μM; JNK, PRAK, ROCK-II, SAPK2b, CDK2, CHK1, MSK1, CSK, P70S6K, PKA, CK1, MAPKAP-K2, SGK, PKCa, PDK1, NEK 7, and MAPKAP-K3 at 20 μM; SAPK2a, LCK, AMPK, MAPK2, DYRK1a, MAPKAP-K1a, NEK-6, NEK2a, PBK, CAMK-1, SRPK-1, JNK3, MNK2, RSK2, MNK1, PKBB, and SmMLCK at 50 μM. For the assays in Table 4 the ATP concentration was 100 μM throughout.

[4] = target: ERK8 (Homo sapiens, UniProt Q8TD08); assay: Kinase selectivity profile, ERK8; type: biochemical; conditions: 5 μM test compound, compared to control; ATP 5 μM
Chain of ERK8 (Q8TD08 whole entry, species assumed): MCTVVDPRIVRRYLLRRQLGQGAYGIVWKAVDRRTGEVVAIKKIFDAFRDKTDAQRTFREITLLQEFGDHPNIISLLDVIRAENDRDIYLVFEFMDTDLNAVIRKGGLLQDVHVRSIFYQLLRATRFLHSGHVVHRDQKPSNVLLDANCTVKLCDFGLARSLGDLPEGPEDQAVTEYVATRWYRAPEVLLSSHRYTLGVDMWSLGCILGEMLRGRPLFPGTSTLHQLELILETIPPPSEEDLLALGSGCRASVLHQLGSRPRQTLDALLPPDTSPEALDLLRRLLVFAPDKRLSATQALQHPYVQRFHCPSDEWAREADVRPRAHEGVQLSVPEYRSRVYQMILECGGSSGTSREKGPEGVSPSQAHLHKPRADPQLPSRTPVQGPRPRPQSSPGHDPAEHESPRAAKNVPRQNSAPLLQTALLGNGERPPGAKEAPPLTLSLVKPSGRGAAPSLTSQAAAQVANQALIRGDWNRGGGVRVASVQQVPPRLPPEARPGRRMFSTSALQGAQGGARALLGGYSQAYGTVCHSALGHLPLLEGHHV
Experimental: as §2

[5] = target: PKA (Homo sapiens, UniProt P17612); assay: Kinase selectivity profile, PKA; type: biochemical; conditions: 5 μM test compound, compared to control; ATP 20 μM
Experimental: as §2

[6] = tested on: CK1; assay: Kinase selectivity profile, CK1; type: biochemical; conditions: 5 μM test compound, compared to control; ATP 20 μM
Experimental: as §2

[7] = target: IKKb (Homo sapiens, UniProt O14920); assay: Kinase selectivity profile, IKKb; type: biochemical; conditions: 5 μM test compound, compared to control; ATP 5 μM
Chain of IKKb (O14920 whole entry, species assumed): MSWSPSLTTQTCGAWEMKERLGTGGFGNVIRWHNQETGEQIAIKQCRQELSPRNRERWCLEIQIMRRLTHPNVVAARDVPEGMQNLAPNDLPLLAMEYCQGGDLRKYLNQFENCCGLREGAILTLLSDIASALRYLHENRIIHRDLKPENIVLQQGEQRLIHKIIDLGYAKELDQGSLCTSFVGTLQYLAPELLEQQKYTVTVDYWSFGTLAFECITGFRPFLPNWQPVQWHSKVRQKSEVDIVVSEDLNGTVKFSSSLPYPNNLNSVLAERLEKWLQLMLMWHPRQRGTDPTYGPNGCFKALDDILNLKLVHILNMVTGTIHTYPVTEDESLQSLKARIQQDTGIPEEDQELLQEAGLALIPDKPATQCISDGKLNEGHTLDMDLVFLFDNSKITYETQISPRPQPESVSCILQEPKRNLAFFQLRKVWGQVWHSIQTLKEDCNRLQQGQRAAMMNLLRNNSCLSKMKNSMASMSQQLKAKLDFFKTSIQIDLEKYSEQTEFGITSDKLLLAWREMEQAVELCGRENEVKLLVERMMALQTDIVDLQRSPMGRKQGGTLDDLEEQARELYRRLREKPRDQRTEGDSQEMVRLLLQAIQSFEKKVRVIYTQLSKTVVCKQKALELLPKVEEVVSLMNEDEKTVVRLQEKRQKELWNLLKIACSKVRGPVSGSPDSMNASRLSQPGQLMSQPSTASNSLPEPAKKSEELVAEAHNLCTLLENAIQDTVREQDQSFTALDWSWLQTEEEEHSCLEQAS
Experimental: as §2

[8] = target: MAPKAP-K1b (Homo sapiens, UniProt P51812); assay: Kinase selectivity profile, MAPKAP-K1b; type: biochemical; conditions: 5 μM test compound, compared to control
Chain of MAPKAP-K1b (P51812 whole entry, species assumed): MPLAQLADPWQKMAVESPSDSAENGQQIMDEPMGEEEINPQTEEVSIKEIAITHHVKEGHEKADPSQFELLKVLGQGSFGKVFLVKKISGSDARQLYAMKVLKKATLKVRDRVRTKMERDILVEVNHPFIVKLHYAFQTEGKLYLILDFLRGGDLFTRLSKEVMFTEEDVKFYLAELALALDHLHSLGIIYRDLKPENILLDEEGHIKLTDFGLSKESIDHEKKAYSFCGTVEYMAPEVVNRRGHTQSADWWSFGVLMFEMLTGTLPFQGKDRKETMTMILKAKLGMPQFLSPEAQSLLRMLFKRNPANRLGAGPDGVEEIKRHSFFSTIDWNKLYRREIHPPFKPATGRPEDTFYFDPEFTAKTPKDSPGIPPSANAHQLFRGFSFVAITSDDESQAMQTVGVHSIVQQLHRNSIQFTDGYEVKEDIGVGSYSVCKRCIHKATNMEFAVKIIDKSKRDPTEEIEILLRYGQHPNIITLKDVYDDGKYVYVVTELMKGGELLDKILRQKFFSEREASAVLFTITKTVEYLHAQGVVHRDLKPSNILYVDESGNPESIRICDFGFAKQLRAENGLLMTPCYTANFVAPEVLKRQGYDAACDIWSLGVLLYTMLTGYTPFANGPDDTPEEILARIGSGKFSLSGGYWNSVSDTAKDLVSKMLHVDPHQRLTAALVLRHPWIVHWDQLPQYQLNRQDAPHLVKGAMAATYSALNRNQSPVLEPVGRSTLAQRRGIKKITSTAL
Experimental: as §2

[9] = target: JNK3 (Homo sapiens, UniProt P53779); assay: Kinase selectivity profile, JNK3; type: biochemical; conditions: 5 μM test compound, compared to control; ATP 50 μM
Chain of JNK3 (P53779 whole entry, species assumed): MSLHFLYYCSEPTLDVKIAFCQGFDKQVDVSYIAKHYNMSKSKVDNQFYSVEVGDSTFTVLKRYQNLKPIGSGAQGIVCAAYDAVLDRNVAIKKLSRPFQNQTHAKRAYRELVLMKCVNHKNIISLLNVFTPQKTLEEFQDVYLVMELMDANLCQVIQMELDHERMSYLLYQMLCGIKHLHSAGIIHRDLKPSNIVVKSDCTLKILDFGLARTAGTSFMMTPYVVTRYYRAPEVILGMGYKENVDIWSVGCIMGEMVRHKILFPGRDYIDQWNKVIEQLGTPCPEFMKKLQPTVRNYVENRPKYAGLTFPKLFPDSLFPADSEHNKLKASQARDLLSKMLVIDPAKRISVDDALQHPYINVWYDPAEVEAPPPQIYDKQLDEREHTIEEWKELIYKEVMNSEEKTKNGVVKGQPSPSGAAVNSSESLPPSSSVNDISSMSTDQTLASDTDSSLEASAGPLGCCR
Experimental: as §2

[10] = target: JNK/SAPK1c (Homo sapiens, UniProt P45983); assay: Kinase selectivity profile, JNK/SAPK1c; type: biochemical; conditions: 5 μM test compound, compared to control; ATP 20 μM
Chain of JNK/SAPK1c (P45983 whole entry): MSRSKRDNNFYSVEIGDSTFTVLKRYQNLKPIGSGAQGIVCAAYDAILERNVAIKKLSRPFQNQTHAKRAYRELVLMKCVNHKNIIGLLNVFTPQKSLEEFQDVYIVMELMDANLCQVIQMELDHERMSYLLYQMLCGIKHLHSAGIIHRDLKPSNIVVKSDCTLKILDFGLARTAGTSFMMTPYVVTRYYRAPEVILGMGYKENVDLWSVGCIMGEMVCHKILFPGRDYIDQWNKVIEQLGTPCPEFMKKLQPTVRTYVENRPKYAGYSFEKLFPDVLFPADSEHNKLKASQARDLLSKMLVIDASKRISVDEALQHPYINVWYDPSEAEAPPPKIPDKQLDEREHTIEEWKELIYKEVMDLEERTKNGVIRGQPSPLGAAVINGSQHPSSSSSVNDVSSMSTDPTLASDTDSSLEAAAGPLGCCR
Experimental: as §2

[11] = target: MNK1 (Homo sapiens, UniProt Q9BUB5); assay: Kinase selectivity profile, MNK1; type: biochemical; conditions: 5 μM test compound, compared to control; ATP 50 μM
Chain of MNK1 (Q9BUB5 whole entry, species assumed): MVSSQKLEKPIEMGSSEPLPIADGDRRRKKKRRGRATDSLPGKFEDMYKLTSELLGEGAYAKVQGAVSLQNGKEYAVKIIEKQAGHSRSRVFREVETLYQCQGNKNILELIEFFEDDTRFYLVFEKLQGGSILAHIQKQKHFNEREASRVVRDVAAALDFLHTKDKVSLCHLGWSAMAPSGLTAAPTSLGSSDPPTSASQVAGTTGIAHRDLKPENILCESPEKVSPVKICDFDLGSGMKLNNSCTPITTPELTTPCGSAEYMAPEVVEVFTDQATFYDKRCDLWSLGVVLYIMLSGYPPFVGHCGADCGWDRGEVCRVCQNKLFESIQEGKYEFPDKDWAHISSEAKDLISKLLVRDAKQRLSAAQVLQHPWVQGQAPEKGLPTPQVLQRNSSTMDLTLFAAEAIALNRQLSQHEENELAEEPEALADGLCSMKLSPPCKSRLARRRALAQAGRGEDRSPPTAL
Experimental: as §2

[12] = target: SAPK4/p38d (Homo sapiens, UniProt O15264); assay: Kinase selectivity profile, SAPK4/p38d; type: biochemical; conditions: 5 μM test compound, compared to control; ATP 5 μM
Chain of SAPK4/p38d (O15264 whole entry): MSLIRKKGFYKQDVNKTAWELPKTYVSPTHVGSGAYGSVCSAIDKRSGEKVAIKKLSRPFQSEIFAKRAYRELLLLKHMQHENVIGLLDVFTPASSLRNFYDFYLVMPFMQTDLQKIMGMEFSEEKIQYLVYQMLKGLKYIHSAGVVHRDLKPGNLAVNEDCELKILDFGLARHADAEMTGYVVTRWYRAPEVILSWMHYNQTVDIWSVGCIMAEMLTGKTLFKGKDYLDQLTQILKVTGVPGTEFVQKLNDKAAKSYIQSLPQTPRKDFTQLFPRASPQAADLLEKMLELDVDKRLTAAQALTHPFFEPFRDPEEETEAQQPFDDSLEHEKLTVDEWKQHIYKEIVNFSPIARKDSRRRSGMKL
Experimental: as §2

[13] = target: PRAK (Homo sapiens, UniProt Q8IW41); assay: Kinase selectivity profile, PRAK; type: biochemical; conditions: 5 μM test compound, compared to control; ATP 20 μM
Chain of PRAK (Q8IW41 whole entry, species assumed): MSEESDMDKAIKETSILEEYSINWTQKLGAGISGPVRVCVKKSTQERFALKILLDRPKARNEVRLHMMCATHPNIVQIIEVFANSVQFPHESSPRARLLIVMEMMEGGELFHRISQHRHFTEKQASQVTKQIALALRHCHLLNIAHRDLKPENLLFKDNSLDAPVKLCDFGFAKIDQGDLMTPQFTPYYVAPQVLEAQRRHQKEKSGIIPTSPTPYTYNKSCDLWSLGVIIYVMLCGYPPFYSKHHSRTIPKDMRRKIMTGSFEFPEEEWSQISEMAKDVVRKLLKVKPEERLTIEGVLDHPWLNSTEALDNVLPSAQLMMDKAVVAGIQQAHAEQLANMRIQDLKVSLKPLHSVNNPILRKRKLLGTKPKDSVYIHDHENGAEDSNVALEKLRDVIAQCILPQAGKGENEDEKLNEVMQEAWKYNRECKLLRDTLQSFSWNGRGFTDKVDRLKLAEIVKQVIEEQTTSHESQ
Experimental: as §2

| IC50 [1] | melting point | Structure (SMILES) | IC50 [2] | remaining activity at 5 µM [3] | remaining activity at 5 µM [4] | remaining activity at 5 µM [5] | Remaining activity (%) CK1 [6] | remaining activity at 5 µM [7] | remaining activity at 5 µM [8] | remaining activity at 5 µM [9] | remaining activity at 5 µM [10] | remaining activity at 5 µM [11] | remaining activity at 5 µM [12] | remaining activity at 5 µM [13] |
| --- | --- | --- | --- | --- | --- | --- | --- | --- | --- | --- | --- | --- | --- | --- |
| 1.2 µM |  | CNc1nc(C)c(-c2ccnc(Nc3cccc(S(N)(=O)=O)c3)n2)s1 [Compound 19, 3-[4-(4-Methyl-2-methylamino-thiazol-5-yl)-pyrimidin-2-ylamino]-benzenesulfonamide] | 0.58 µM |  |  |  |  |  |  |  |  |  |  |  |
|  | 179 to 180 °C | COCCNS(=O)(=O)c1cccc(Nc2nccc(-c3sc(N)nc3C)n2)c1 [Compound 55, 3-[4-(2-Amino-4-methyl-thiazol-5-yl)-pyrimidin-2-ylamino]-N-(2-methoxy-ethyl)-benzenesulfonamide] |  |  |  |  |  |  |  |  |  |  |  |  |
|  |  | CCNc1nc(C)c(-c2ccnc(Nc3ccc(N4CCNCC4)cc3)n2)s1 [Compound 59, [4-(2-Ethylamino-4-methyl-thiazol-5-yl)-pyrimidin-2-yl]-(4-piperazin-1-yl-phenyl)-amine] | 3.3 µM | 47% | 4% | 22% | 3% | 7% | 17% | 13% | 2% | 3% | 66% | 44% |
|  |  | Cc1nc(CS(=O)(=O)c2cccs2)sc1-c1ccnc(Nc2ccc(N3CCOCC3)cc2)n1 [Compound 138, {4-[4-Methyl-2-(thiophene-2-sulfonylmethyl)-thiazol-5-yl]-pyrimidin-2-yl}-(4-morpholin-4-yl-phenyl)-amine] |  | 80% | 11% | 29% | 27% | 34% | 48% | 15% | 10% | 18% | 85% | 59% |
